Laboratory results from ChEMBL document CHEMBL1139568, “Carbonic anhydrase inhibitors. Inhibition of cytosolic/tumor-associated carbonic anhydrase isozymes I, II, IX, and XII with Schiff's bases incorporating chromone and aromatic sulfonamide moieties, and their zinc complexes” (Bioorg Med Chem Lett, 2005).

Legend:
[1] = biological target: Carbonic anhydrase 9 (Homo sapiens, UniProt Q16790)
Description: Inhibition constant against human carbonic anhydrase IX

[2] = biological target: Carbonic anhydrase 2 (Homo sapiens, UniProt P00918)
Description: Inhibition constant against human carbonic anhydrase II

[3] = biological target: Carbonic anhydrase 1 (Homo sapiens, UniProt P00915)
Carbonic anhydrase 1, sequence (P00915 whole entry): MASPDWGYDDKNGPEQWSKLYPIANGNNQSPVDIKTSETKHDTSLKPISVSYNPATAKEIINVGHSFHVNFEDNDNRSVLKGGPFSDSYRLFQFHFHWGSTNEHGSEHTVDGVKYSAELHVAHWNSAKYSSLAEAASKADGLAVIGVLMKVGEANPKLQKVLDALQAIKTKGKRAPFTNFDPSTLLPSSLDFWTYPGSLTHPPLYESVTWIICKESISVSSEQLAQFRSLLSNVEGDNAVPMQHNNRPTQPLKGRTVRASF
Description: Inhibition constant against human carbonic anhydrase I

[4] = biological target: Carbonic anhydrase 12 (Homo sapiens, UniProt O43570)
Carbonic anhydrase 12, sequence (O43570 whole entry): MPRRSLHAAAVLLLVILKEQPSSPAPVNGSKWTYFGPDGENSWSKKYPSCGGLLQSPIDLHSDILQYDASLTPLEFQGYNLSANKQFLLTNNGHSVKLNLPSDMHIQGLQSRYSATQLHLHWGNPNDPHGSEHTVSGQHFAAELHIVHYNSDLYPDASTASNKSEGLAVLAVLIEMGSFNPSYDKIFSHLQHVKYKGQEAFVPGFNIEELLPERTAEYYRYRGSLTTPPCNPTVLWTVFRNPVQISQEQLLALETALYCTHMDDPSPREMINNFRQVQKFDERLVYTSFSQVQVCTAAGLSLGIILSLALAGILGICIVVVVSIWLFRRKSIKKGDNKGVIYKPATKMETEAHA
Description: Inhibition constant against human carbonic anhydrase XII

[5] = tested as the Zn salt or complex

Ki [1, 5]	Ki [1]	Compound	further results
15 nM	–	Cc1ccc2occ(CNc3ccc(S(N)(=O)=O)cc3)c(=O)c2c1	–
–	> 1000 nM	N=C(N)NS(=O)(=O)c1ccc(/N=C/c2coc3ccccc3c2=O)cc1	Ki [2]: > 1000 nM; Ki [3]: > 1000 nM; Ki [4]: > 1000 nM
–	32 nM	NS(=O)(=O)c1ccc(C/N=C/c2coc3ccccc3c2=O)cc1	–
–	26 nM	NS(=O)(=O)c1ccc(CC/N=C/c2coc3ccccc3c2=O)cc1	–
14 nM	–	Cc1ccc2occ(CNCc3ccc(S(N)(=O)=O)cc3)c(=O)c2c1	–
10 nM	–	NS(=O)(=O)c1ccc(NCc2coc3ccccc3c2=O)cc1	–
–	37 nM	Cc1ccc2occ(/C=N/CCc3ccc(S(N)(=O)=O)cc3)c(=O)c2c1 [listing 1 of 2 here]	–
–	> 1000 nM	Cc1ccc2occ(/C=N/c3ccc(S(=O)(=O)N=C(N)N)cc3)c(=O)c2c1	Ki [2]: > 1000 nM; Ki [3]: > 1000 nM; Ki [4]: > 1000 nM
7.3 nM	–	NS(=O)(=O)c1ccc(CCNCc2coc3ccccc3c2=O)cc1	–
6.3 nM	–	NS(=O)(=O)c1ccc(C/N=C/c2coc3ccccc3c2=O)cc1 (stereo in doubt; 21)	–
6.8 nM	–	Cc1ccc2occ(/C=N/c3ccc(S(N)(=O)=O)cc3)c(=O)c2c1 [listing 1 of 2 here]	–
12 nM	–	Cc1ccc2occ(CNCCc3ccc(S(N)(=O)=O)cc3)c(=O)c2c1	–
8.2 nM	–	Cc1ccc2occ(/C=N/CCc3ccc(S(N)(=O)=O)cc3)c(=O)c2c1 [listing 2 of 2 here]	–
8.1 nM	–	NS(=O)(=O)c1ccc(CNCc2coc3ccccc3c2=O)cc1	–
> 1000 nM	–	NS(=O)(=O)c1ccc(C/N=C/c2coc3ccccc3c2=O)cc1 (stereo in doubt; 20)	–
–	48 nM	Cc1ccc2occ(/C=N/c3ccc(S(N)(=O)=O)cc3)c(=O)c2c1 [listing 2 of 2 here]	–
–	32 nM	Cc1ccc2occ(/C=N/c3cc(C(F)(F)F)c(S(N)(=O)=O)cc3S(N)(=O)=O)c(=O)c2c1	–
